According to patent US20250327028A1, “ENGINEERED PLATELETS AS TARGETED PROTEIN DEGRADERS” (Wisconsin Alumni Research Foundation, priority 2024, published 2025):

Columns and labels:
BRD4 [1] = target: T1, BRD4 (Mus musculus, UniProt Q9ESU6); test: Immunoblot analysis of BRD4 degradation in 4T1 cells after DePLT or PMP treatment; assay type: cell-based, murine; conditions: 2-h HAI pretreatment, 1×10^8 iDePLTs 12 h
T1 construct: endogenous in cells; host or cells: 4T1
Protocol: (§1) Immunoblot analysis: Immunoblot analysis was used to evaluate the expression of BRD4, HSP90, HSP90a, and PD-L1 in 4T1, WT MDA-MB-231, HSP90α-KO MDA-MB-231 or PEA-10 cells after various treatments and also served as the detection method for IP or co-IP experiments. The procedures for preparing IP or co-IP samples were indicated in the relevant experimental parts.
(§2) Sample preparation for 4T1 cells after DePLT treatment: 4T1 cells were seeded in 6-well culture plates with a density 5×10^4 cells in each well and cultured for 24 h. The engineered platelets, including iDePLT and eDePLT, were generated by incubating the fresh platelets in PBS containing iHAC or eHAC at 20 μM for 2 h. The fresh nPLT was used as the control. Then, if HAI pretreatment was performed, the cells were incubated in the HAI-containing blank medium at different concentrations for 2 h and washed with PBS twice before the following treatments. […]
(§3) General procedures for immunoblot analysis: After a 30-min lysis, the lysates were centrifuged at 10,000 g for 10 minutes at 4° C., and the corresponding supernatants were collected, followed by quantification of the total proteins in the supernatant through the BCA assay. […] Finally, the bands were treated with electrochemiluminescence (ECL) western blot substrate, detected by the iBright™ imaging system and quantified with ImageJ software. […]

BRD4 [2] = target: T1, BRD4; test: Immunoblot analysis of BRD4 degradation in 4T1 cells after free HAC treatment; assay type: cell-based, murine; conditions: 4T1 cells
Source text: as §1
(§4) Sample preparation for various cancer cells after free HAC treatment: Various cells, including 4T1, WT MDA-MB-231, HSP90α-KO MDA-MB-231, or PEA-10 cells, were seeded in 6-well culture plates with a density of 5×10^4 cells in each well and cultured for 24 h. Then, if HAI pretreatment was performed, the cells were incubated in the HAI-containing blank medium at different concentrations for 2 h and washed with PBS twice before the following treatments. The medium in the corresponding wells was replaced with 1 mL of blank medium containing the DMSO vehicle, HACs, or the combinations of various free ligands at the predetermined concentrations. After incubation for the indicated time points, cells were washed with PBS and lysed on ice with the relevant lysis buffer containing PMSF (1 mM) and the phosphatase inhibitor cocktail for 30 min. As for the conditioned medium (CM), the culturing complete medium of the corresponding cancer cells in each well was collected after 24-h incubation and subjected to centrifugation at 2000 rpm for 5 min to obtain the supernatant. The filtrate of the supernatants was collected following filtration over a 0.45 μm filter, serving as the CM. Regarding the cell samples for BRD4 detection, the lysis buffer containing HEPES-KOH (pH=7.5, 10 mM), NaCl (500 mM), EDTA (5 mM), NP-40 (1%), and SDS (0.1%) was used with the indicated PMSF and phosphatase inhibitor cocktail. As for PD-L1 detection, RIPA buffer (Thermo Fisher Scientific/J63306.AP) was used with the indicated PMSF and phosphatase inhibitor cocktail.
General procedures for immunoblot analysis: After a 30-min lysis, the lysates were centrifuged at 10,000 g for 10 minutes at 4° C., and the corresponding supernatants were collected, followed by quantification of the total proteins in the supernatant through the BCA assay. Afterward, the proteins in the supernatant were mixed with the loading buffer and heated at 95° C. for 15 min. Equal amounts of proteins from different samples ([…]) were loaded into the Bis-Tris gel formulated with Bis-Tis buffer, 30% acrylamide/Bis, 10% ammonium persulfate (APS) solution, and TEMED. The separated proteins were transferred to polyvinylidene fluoride (PVDF) membranes before the membranes were blocked with 5% nonfat milk in PBS-T. Next, the PVDF membranes were incubated with primary antibodies overnight at 4° C., if necessary, followed by the incubation with the goat-anti-rabbit IgG H & L (HRP) secondary antibodies at room temperature for 2 h. Finally, the bands were treated with electrochemiluminescence (ECL) western blot substrate, detected by the iBright™ imaging system and quantified with ImageJ software. 8% Bis-Tris gels were used for BRD4 detection, and 10% gels were adopted to analyze PD-L1.

WT MDA-MB-231 cells = test: In-gel fluorescence detection of NA-647 internalization in WT MDA-MB-231 cells; assay type: cell-based, human; conditions: WT MDA-MB-231, 2-h HAI at various concentrations prior to HAC-B 5 μM 4 h
Protocol: In-gel fluorescence detection: In-gel fluorescence was mainly used to investigate the internalization of NeutrAvidin™_647 in HAC-B-treated cancer cells.
Sample preparation: 4T1 or WT MDA-MB-231 cells were seeded in 6-well culture plates with a density of 5×10^4 cells in each well and cultured for 24 h. If HAI pretreatment was performed, the cells were incubated in the HAI-containing blank medium at different concentrations for 2 h and washed with PBS twice before the following treatments. Then, the cells were treated with free HAC-B or the combinations of various ligands at the indicated concentrations for the predetermined time points. Next, the drug-containing medium was removed, and PBS was used to wash the cells twice, followed by incubating the cells in the blank medium containing NeutrAvidin™ DyLight™ 650 (NA-647, Invitrogen/84607) at 0.5 μM for 1 h. Finally, the cells were washed with PBS and lysed on ice with the RIPA buffer containing PMSF (1 mM) and the phosphatase inhibitor cocktail for 30 min. A s for the 4T1 cells cotreated with NA-647 and HAC-B, the cells after 24-h incubation were treated with the blank medium containing NA-647 at 0.5 μM and HAC-B at various concentrations for 2 h before cell lysis.
In-gel fluorescence imaging: After 30-min lysis, the lysates were centrifuged at 10,000 g for 10 minutes at 4° C., and the corresponding supernatants were collected, followed by quantification of the total proteins in the supernatant through the BCA assay. Afterward, the proteins in the supernatant were mixed with ¼ volume of 5× sample buffer formulated by Tris-HCl (pH 6.8, 312.5 mM), sucrose (25%), SDS (10%), bromophenol blue (0.025%), and dithiothreitol (DTT, 250 mM). After incubation for 1 h at room temperature, equal amounts of proteins from different samples ([…] per lane) were loaded into the 12% Bis-Tris gel. After the proteins were separated, the gels were subjected to fluorescence imaging with the ChemiDoc™ MP imaging system (Bio-Rad).

PD-L1 = target: T2, PD-L1 (Mus musculus, UniProt Q9EP73); test: Immunoblot analysis of PD-L1 degradation in 4T1 cells after eDePLT treatment; assay type: cell-based, murine; conditions: 2-h HAI pretreatment, 1×10^8 eDePLTs 8 h
T2 construct: endogenous in cells; host or cells: 4T1
T2 sequence (Q9EP73 19-290): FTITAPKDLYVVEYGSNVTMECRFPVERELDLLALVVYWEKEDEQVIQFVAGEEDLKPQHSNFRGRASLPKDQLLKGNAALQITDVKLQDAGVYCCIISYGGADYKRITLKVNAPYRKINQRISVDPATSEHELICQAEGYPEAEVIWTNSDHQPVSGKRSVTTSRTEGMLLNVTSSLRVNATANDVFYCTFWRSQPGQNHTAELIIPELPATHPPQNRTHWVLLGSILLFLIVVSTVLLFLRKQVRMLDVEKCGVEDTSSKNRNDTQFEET
Protocol: as §1, §2, §3

BRD4 [3] = target: T3, BRD4 (Homo sapiens, UniProt O60885); test: Immunoblot analysis of BRD4 degradation in WT MDA-MB-231 cells after free HAC treatment; assay type: cell-based; conditions: lower or higher effective concentrations, 12 h
T3 construct: endogenous in cells; host or cells: WT MDA-MB-231 (ATCC)
Source text: as §1
as §4, with “Regarding the cell samples for BRD4 detection, the lysis buffer containing HEPES-KOH (pH=7.5, 10 mM), NaCl (500 mM), EDTA (5 mM), NP-40 (1%), and SDS (0.1%) was used with the indicated PMSF and phosphatase inhibitor cocktail. As for PD-L1 detection, RIPA buffer (Thermo Fisher Scientific/J63306.AP) was used with the indicated PMSF and phosphatase inhibitor cocktail.” left out
as §3

Compound	BRD4 downregulation by iDePLT after HAI pretreatment of target cells (BRD4 [1])	BRD4 degradation by iHAC after HAI pretreatment (BRD4 [2]; 2-h HAI pretreatment at various concentrations, then iHAC 10 μM 12 h)	NA-647 uptake by HAC-B after HAI preincubation (WT MDA-MB-231 cells)	PD-L1 degradation by eDePLT after HAI pretreatment of target cells (PD-L1)	BRD4 degradation compared to iHAC (BRD4 [2]; lower or higher effective concentrations, 12 h)	BRD4 degradation compared to iHAC (BRD4 [3])
Nc1ncnc2c1nc(Sc1cc3c(cc1I)OCO3)n2CCCNCc1cccc(S(=O)(=O)F)c1 [HAI, 3-(((3-(6-amino-8-((6-iodobenzo[d][1,3]dioxol-5-yl)thio)-9H-purin-9-yl)propyl)amino)methyl)benzenesulfonyl fluoride]	failed to relieve BRD4 downregulation	inferior BRD4 degradation efficacy	largely compromised NA-647 uptake	failed to rescue the PD-L1 degradation	–	–
Cc1sc2c(c1C)C(c1ccc(Cl)cc1)=N[C@H](CC(=O)NCc1cn(CCCC(=O)N(CC#N)S(=O)(=O)c3ccc(C(=O)NCCCn4c(Sc5cc6c(cc5I)OCO6)nc5c(N)ncnc54)cc3)nn1)c1nnc(C)n1-2 [iHACepi, (R)—N-(3-(6-amino-8-((6-iodobenzo[d][1,3]dioxol-5-yl)thio)-9H-purin-9-yl)propyl)-4-(N-(4-(4-((2-(4-(4-chlorophenyl)-2,3,9-trimethyl-6H-thieno[3,2-f][1,2,4]triazolo[4,3-a][1,4]diazepin-6-yl)acetamido)methyl)-1H-1,2,3-triazol-1-yl)butanoyl)-N-(cyanomethyl)sulfamoyl)benzamide]	–	–	–	–	almost no substantial BRD4 degradation	almost no substantial BRD4 degradation
